These are literature values, as cited in patent US12186420B2, “Compositions and methods of use for treatment or improvement of the condition and appearance of skin” (Quthero, Inc., priority 2020, dated 2025).

In this series the test system is keratinocyte. Conditions: in the presence of reactive oxygen species.

Consider “QHREDGS [angiopoietin-1 derived peptide]”, for which the keratinocyte death entry is reported as “reduce keratinocyte death”.
